Measured values: US5098933A, “Pharmaceutically useful Michael addition products of unsaturated aldehydes and ketones and ascorbic acid” (Theracel Corporation, priority 1990, dated 1992)
Where two headings read alike, the source gives them in different places.

Columns and labels:
[1] = tested on: T- and B- lymphocyte isolated from mouse spleens; assay: Lymphocyte Blastogenesis Assay; type: in vivo; details: for RPMI CONTROL: no mitogen (Table 7); for activation at 25 mg/kg / activation at 50 mg/kg / activation at 100 mg/kg / activation at 12.5 mg/kg / activation at 200 mg/kg: Mus musculus, Lymphocyte; for RPMI: no mitogen (Table 8)
Text: This assay measures the ability of the compound under test to affect DNA synthesis and mitosis of T- and B- lymphocyte isolated from mouse spleens.
Mitogens are substances which stimulate DNA synthesis and mitosis. The mitogens used in these studies were phytohemaglutinin (PHA) which is isolated from the red kidney bean and concanavalin-A (Con-A) which is isolated form the jack bean. Con-A binds to specific receptors (glycoproteins) containing mannosyl or glycosyl moieties and stimulates all murine T-cells to synthesize DNA, divide, and release lymphokines. Con-A in a soluble form allows distinction between T- and B-cells in the mouse, because although both T- and B-cells can bind 106 molecules of Con-A per cell, only T-cells are stimulated when this lectin is presented in a soluble form. PHA stimulates only subpopulations, T-2 cells, of T-cells in the mouse. Also, Con-A stimulates the production of cytokines such as Interleukin-2 (IL-2). In humans, both T- and B-cells are probably stimulated. The activation of B-cells by PHA may be indirect and mediated by the release of soluble mediators from PHA-activated T-cells.
The lymphocyte blastogenesis test is a method to assess the ability of immunocompetent T- or B-cells to respond to a polyclonal mitogen (i.e. PHA or Con-A) or a specific antigen. It may be performed on lymphocytes obtained from mice treated with immunostimulators in vivo or the entire assay can be performed in vitro. The assay as described below uses minimal doses of polyclonal mitogens to induce blastogenesis (proliferation measure by DNA synthesis), in order to be able to assess the phenomena of amplification.
1. Sacrifice two mice/experimental group by cervical dislocation.
14. […]
15. Include in the experiment a control plate which contains the same cells group as above, but receive a 0.1 ml of media instead of mitogen.
18. After 48 hours all wells receive 0.025 mls of a 0.4 microcurie/ml solution of C-14 methyl thymidine and incubate at 37 C, 5% CO-2 for 18 hours.

[2] = tested on: plaque forming cells, antibody specific to sheep red blood cells; assay: Jerne Hemolytic Plaque Assay; type: in vivo, mice
Description: This assay measures the IgM or IgG isotypes of specific antibody produced by antigen used to immunize the mice. […] The direct assay detects IgM and the indirect assay detects IgG-specific antibody.
Washed spleen cells are added to an agarose (FMC, Rockland, Me.) preparation containing sheep red blood cells (SRBC) and guinea pig complement. A drop of this mixture is transferred to a small petri dish; a cover slip is then placed over the drop to flatten it. The agarose prep is allowed to solidify. Then, the dishes are placed in a small humidified changer inside a CO-2 incubator overnight.
Small pinpoint cleared areas (plaques) will be observed under the cover slip. The cleared areas are caused by antibody, specific to the SRBC's being released by stimulated spleen cells and in conjunction with the complement, lyse surrounding SRBC's. These plaque forming cells (PFC's) are counted, and calculations are performed to obtain PFC's per […] spleen cells.
1. Spleens are harvested from mice according to a standard procedure and adjusted to a final concentration of 20% in […].
14. Count and record the number of hemolytic plaques per plate. Average plaque counts between the duplicate sets. Multiply the average number of plaques per group by 2.5 to obtain the number of plaque forming cells per million spleen cells.

## O=C1CCCC(C2(O)C(=O)OC3C(O)COC32O)C1 (single isomer, unassigned) [KCBL-A]
[1]; 12.5 mg/kg (Table 7)
  CON-A 6 ug/ml: 3412.0 counts per minute
  PHA 14 ug/ml: 1450.0 counts per minute
[1]; 12.5 mg/kg
  RPMI CONTROL: 94.0 counts per minute
[1]; 25.0 mg/kg (Table 7)
  CON-A 6 ug/ml: 5657.0 counts per minute
  PHA 14 ug/ml: 2178.0 counts per minute
[1]; 25.0 mg/kg
  RPMI CONTROL: 77.0 counts per minute
[1]; 50.0 mg/kg (Table 7)
  CON-A 6 ug/ml: 5059.0 counts per minute
  PHA 14 ug/ml: 2369.0 counts per minute
[1]; 50.0 mg/kg
  RPMI CONTROL: 50.0 counts per minute
[1]; 100.0 mg/kg (Table 7)
  CON-A 6 ug/ml: 4104.0 counts per minute
  PHA 14 ug/ml: 2384.0 counts per minute
[1]; 100.0 mg/kg
  RPMI CONTROL: 76.0 counts per minute
[1]; 25.0 mg/kg (Table 7), read-out: % INCREASE (CON-A 6 ug/ml)
  activation at 25 mg/kg: 56.6%
[1]; 25.0 mg/kg (Table 7), read-out: % INCREASE (PHA 14 ug/ml)
  activation at 25 mg/kg: 26.1%
[1]; 50.0 mg/kg (Table 7), read-out: % INCREASE (CON-A 6 ug/ml)
  activation at 50 mg/kg: 40%
[1]; 50.0 mg/kg (Table 7), read-out: % INCREASE (PHA 14 ug/ml)
  activation at 50 mg/kg: 37.1%
[1]; 100.0 mg/kg (Table 7), read-out: % INCREASE (CON-A 6 ug/ml)
  activation at 100 mg/kg: 13.6%
[1]; 100.0 mg/kg (Table 7), read-out: % INCREASE (PHA 14 ug/ml)
  activation at 100 mg/kg: 38%
[2]; 12.5 mg/ml (Table 10)
  % INCREASE: 100%
  PFC: 112.00 PFC/1 MILLION CELLS
[2]; 25 mg/kg (Table 10)
  % INCREASE: 104%
  PFC: 115.00 PFC/1 MILLION CELLS
[2]; 50 mg/kg (Table 10)
  % INCREASE: 193%
  PFC: 165.00 PFC/1 MILLION CELLS
[2]; 100 mg/kg (Table 10)
  % INCREASE: 318%
  PFC: 235.00 PFC/1 MILLION CELLS
[2]; 200 mg/kg (Table 10)
  % INCREASE: 215%
  PFC: 177.50 PFC/1 MILLION CELLS

## O=C1CCCC(C2(O)C(=O)OC3C(O)COC32O)C1 (single isomer, unassigned) [KCBL-B]
[1]; 12.5 mg/kg (Table 8)
  CON-A 2.25 ug/ml: 865.6 counts per minute
  PHA 14.0 ug/ml: 1733.1 counts per minute
[1]; 12.5 mg/kg
  RPMI: 67.6 counts per minute
[1]; 25 mg/kg (Table 8)
  CON-A 2.25 ug/ml: 1309.6 counts per minute
  PHA 14.0 ug/ml: 3512.1 counts per minute
[1]; 25 mg/kg
  RPMI: 84.3 counts per minute
[1]; 50 mg/kg (Table 8)
  CON-A 2.25 ug/ml: 1130.6 counts per minute
  PHA 14.0 ug/ml: 2540.7 counts per minute
[1]; 50 mg/kg
  RPMI: 56.2 counts per minute
[1]; 100 mg/kg (Table 8)
  CON-A 2.25 ug/ml: 1736.7 counts per minute
  PHA 14.0 ug/ml: 3515.4 counts per minute
[1]; 100 mg/kg
  RPMI: 84.9 counts per minute
[1]; 200 mg/kg (Table 8)
  CON-A 2.25 ug/ml: 2008.0 counts per minute
  PHA 14.0 ug/ml: 3305.8 counts per minute
[1]; 200 mg/kg
  RPMI: 52.0 counts per minute
[1]; 12.5 mg/kg (Table 8), read-out: % INCREASE (CON-A 2.25 ug/ml)
  activation at 12.5 mg/kg: 123%
[1]; 12.5 mg/kg (Table 8), read-out: % INCREASE (PHA 14.0 ug/ml)
  activation at 12.5 mg/kg: 12.1%
[1]; 25 mg/kg (Table 8), read-out: % INCREASE (CON-A 2.25 ug/ml)
  activation at 25 mg/kg: 237%
[1]; 25 mg/kg (Table 8), read-out: % INCREASE (PHA 14.0 ug/ml)
  activation at 25 mg/kg: 127%
[1]; 50 mg/kg (Table 8), read-out: % INCREASE (CON-A 2.25 ug/ml)
  activation at 50 mg/kg: 191%
[1]; 50 mg/kg (Table 8), read-out: % INCREASE (PHA 14.0 ug/ml)
  activation at 50 mg/kg: 64.4%
[1]; 100 mg/kg (Table 8), read-out: % INCREASE (CON-A 2.25 ug/ml)
  activation at 100 mg/kg: 347%
[1]; 100 mg/kg (Table 8), read-out: % INCREASE (PHA 14.0 ug/ml)
  activation at 100 mg/kg: 128%
[1]; 200 mg/kg (Table 8), read-out: % INCREASE (CON-A 2.25 ug/ml)
  activation at 200 mg/kg: 418%
[1]; 200 mg/kg (Table 8), read-out: % INCREASE (PHA 14.0 ug/ml)
  activation at 200 mg/kg: 114%
[2]; 25 mg/kg (Table 10)
  % INCREASE: 39%
  PFC: 66.25 PFC/1 MILLION CELLS
[2]; 50 mg/kg (Table 10)
  % INCREASE: 218%
  PFC: 151.25 PFC/1 MILLION CELLS
[2]; 100 mg/kg (Table 10)
  % INCREASE: 232%
  PFC: 157.5 PFC/1 MILLION CELLS
[2]; 200 mg/kg (Table 10)
  % INCREASE: 171%
  PFC: 128.75 PFC/1 MILLION CELLS

## O=C1CCC(C2(O)C(=O)OC3C(O)COC32O)C1 (single isomer, unassigned) [L-KCPBL-A]
[2]; 25 mg/kg (Table 12)
  % INCREASE: 233%
  PFC: 162.5 PFC/1 MILLION CELLS
[2]; 50 mg/kg (Table 12)
  % INCREASE: 151%
  PFC: 122.5 PFC/1 MILLION CELLS
[2]; 100 mg/kg (Table 12)
  % INCREASE: 120%
  PFC: 107.5 PFC/1 MILLION CELLS
[2]; 200 mg/kg (Table 12)
  % INCREASE: 202%
  PFC: 147.5 PFC/1 MILLION CELLS
[2]; vs control
  antibody production / PFC, dose dependence: stimulates T-dependent antibody production, but not in a dose response fashion
